Results on 20 compounds are retold here after ChEMBL document CHEMBL1759900, “Inhibition of nitric oxide production in lipopolysaccharide-stimulated RAW264.7 macrophage cells by lignans isolated from Euonymus alatus leaves and twigs” (Bioorg Med Chem Lett, 2011).

Structures are written as SMILES.

The experiment deals with RAW264.7. As to the kind of experiment: Inhibition of LPS-induced nitric oxide production in mouse RAW264.7 cells preincubated with compound for 1 hr before exposure to LPS measured after 24 hrs by Griess reaction method. In kind it is functional, cell-based. A general note: Nitrite, measured by Griess reagent, commonly stands in for NO production.
By IC50 is commonly meant the midpoint of a concentration-inhibition curve. With `COc1cc([C@H]2Oc3c(OC)cc(CCCO)cc3[C@@H]2CO)ccc1O` [DIHYDRODEHYDRODICONIFERY ALCOHOL], the IC50 was 9.8 µM.

On to `COc1cc([C@H]2Oc3c(OC)cc(/C=C/CO)cc3[C@@H]2CO)ccc1O`, for which the IC50 turned out to be 9.3 µM. In the case of `COc1cc(C(O)C(CO)Oc2c(OC)cc(C3OCC4C(c5cc(OC)c(OC(CO)C(O)c6ccc(O)c(OC)c6)c(OC)c5)OCC34)cc2OC)ccc1O` (stereo not given) [HEDYOTISOL B], the IC50 was greater than 100 µM. As for `COc1cc(CC(CO)OC(CO)C(OC)c2cc(OC)c(O)c(OC)c2)ccc1O` (stereo not given), the IC50 was found to be 41.9 µM. For `COc1cc(C(O)C(CO)Oc2c(OC)cc(C3Oc4c(OC)cc(/C=C/CO)cc4C3CO)cc2OC)ccc1O` (stereo not given), the IC50 turned out to be 21.3 µM. For the compound `COc1cc([C@H]2Oc3c(OC)cc(/C=C/CO)cc3[C@@H]2CO)cc(OC)c1O`, the IC50 was determined as 11.7 µM. Turning to `COc1cc([C@H](O)[C@@H](CO)Oc2c(OC)cc(/C=C/CO)cc2OC)cc(OC)c1O`, the IC50 is 57.9 µM. To `COc1cc([C@@H]2c3c(cc(OC)c(O)c3OC)C[C@@H](CO)[C@@H]2CO)cc(OC)c1O` belongs 55.5 µM; to `COc1cc([C@@H](O)[C@H](CO)Oc2ccc(/C=C/CO)cc2OC)ccc1O`, 63.6 µM; to `COc1cc([C@@H]2Oc3c(OC)cc(/C=C/CO)cc3[C@H]2CO)ccc1O` [DEHYDROCONIFERYL ALCOHOL], 8.5 µM.

As for `COC(=O)[C@@H](N)CCCNC(=N)N[N+](=O)[O-]` [L-NAME], the IC50 is 48.5 µM. As to `COc1cc([C@@H](O)[C@@H](CO)Oc2ccc(CCCO)cc2OC)ccc1O`, the IC50 was determined as 63.4 µM. In the case of `COc1cc([C@H](O)[C@H](CO)Oc2c(OC)cc(/C=C/CO)cc2OC)ccc1O`, the IC50 was 58.2 µM.

`COc1cc([C@H](O)[C@@H](CO)Oc2ccc(/C=C/CO)cc2OC)ccc1O`: the 50% inhibitory concentration (IC50) is 66.4 µM. On to `COc1cc([C@H](O)[C@H](CO)Oc2ccc(CCCO)cc2OC)ccc1O`, for which the IC50 came out at 69.2 µM. In the case of `COc1cc([C@H]2OC[C@H]3[C@@H]2CO[C@@H]3c2cc(OC)c(OC)c(OC)c2)cc(OC)c1O`, the IC50 was 15.8 µM.

Turning to `COc1cc([C@@H]2Oc3c(OC)cc(/C=C/CO)cc3[C@H]2CO)cc(OC)c1O`, the IC50 is 12.8 µM. `COc1cc([C@H]2OC[C@H]3[C@@H]2CO[C@@H]3c2cc(OC)c(O)c(OC)c2)cc(OC)c1O` [SYRINGARESINOL]: the IC50 amounted to 14.8 µM. On to `COc1cc(C(OC)C(CO)OC(CO)Cc2cc(OC)c(O)c(OC)c2)ccc1O` (single isomer, unassigned; (-)), for which the IC50 is 44.3 µM. For `COc1cc([C@H]2OC[C@H]3[C@@H]2CO[C@@H]3c2cc(OC)c(O[C@H](CO)[C@@H](O)c3ccc(O)c(OC)c3)c(OC)c2)ccc1O` [HEDYOTOL C], the IC50 is 21.4 µM.
